Results as given in patent US6569846B1, “Palladium-substituted bacteriochlorophyll derivatives and use thereof” (Yeda Research and Development Co. Ltd., priority 1998, dated 2003).
Where “and” joins values, the source holds several entries; their conditions need not be identical. Equal entries are not always repeated.

Legend:
C3H/BA mammary carcinoma = test: In vivo PDT of BA mammary carcinoma; set-up: key to Summary (cures), symbol: −: no response
Method: Photodynamic therapy parameters: Mice with tumors measuring 5-7 mm in diameter were entered into PDT experiments. Three Pd-BPheid drug doses (1, 5 and 10 mg/kg) and two light doses (100 and 300 Joules/sq.cm) were evaluated. A formulation of Pd-BPheid dissolved in Cremophor was administered by i.v. tail injection. PDT light exposure was started either 15 minutes, 1 hour or 4 hours following injection. […] A titanium sapphire laser tuned to 757 nm was used as the light source for PDT. Laser generated light was coupled into quartz fibers for delivery of light to tumors. A light power density of 75 mW/sq.cm was used. Tumor size was measured 3 days per week following PDT treatments and the percentage of tumor cures (defined as no tumor recurrence for 40 days post treatment) was determined.
In vivo PDT Response: Tables 4 and 5 hereinafter provide summaries of the PDT treatment results for C3H mice transplanted with either the BA mammary carcinoma or the RIF-1 fibrosarcoma. Each table indicates the following parameters: 1) intravenous drug dose expressed in mg/kg; 2) laser treatment parameters, including the total light dose (J/cm^2), the wavelength (757 nm), the light dose rate (mW/cm^2), and the time interval ([…], 4) toxicity (four mice died shortly after treatment), 5) tumor regrowth (consisting of the number of days between PDT treatment and tumor recurrence) and 6) the number of mice (and percentage) with Pd-BPheid PDT induced tumor cures.

[1] = test system: A431 human epithelial carcinoid cells
Method: (ii) Light source: Halogen lamp (Osram, Germany, 100 W), with 4.5 cm water filter and cut off filter>650 nm. The cells were illuminated for 10 minutes, 15 mW/cm^2, a total energy fluency of 9 J/cm^2. For illumination, the culture plates were placed on a glass table to provide the light from the bottom.
(iii) Phototoxicity study: A431 cells (5×10^4 cells) were seeded in 3 cm dishes in duplicates and cultured to 75% confluency in Dulbecco's modified Eagle's medium (DMEM)+F12 (1:1), buffered with HEPES (25 mM, pH 7.4), fetal calf serum (FCS) with penicillin (0.06 mg/ml) and streptomycin (0.1 mg/ml). […] After a 4-hour period the cells were washed with culture medium and the cells were illuminated with the light source above. Phase contrast microscopic examination was performed at different time points after illumination (0, 0.5, 4 and 24 hours post-PDT) using Zeiss Axiovert-35 light microscope (magnification X320) equipped with a Contax 35 mm SLR camera. In the second dish of every duplicate, cell viability was assessed 24 hours post-PDT using neutral red viability assay (Zhang S Z., 1990, Cell Biol Toxicol 6(2): 219-234).

[2] = test system: mouse leukemia L1210 cells; test: Sites of photodamage (fluorescent probes); type: cell-based
Method: (ii) In vitro phototoxicity. For studies on phototoxicity involving L1210 and RIF cells, light was provided by a 600 watt quartz-halogen source filtered with 10 cm of water and a 850 nm cut-off filter to remove IR. The bandwidth was further confined to 660±5 nm by an interference filter (Oriel). Cells in suspension (L1210) or adhering to 24 mm diameter cover slips were incubated in growth medium (with 20 mM HEPES pH 7 replacing NaHCO3 for added buffering capacity) for 15 min in the presence of specified levels of sensitizers. The cells were then washed free from the sensitizer, and transferred to fresh media. Irradiations were carried out at 10° C. For some studies, the cells were then labeled with fluorescent probes and sites of photodamage were assessed. In other studies, the cells were then incubated for 60 min at 37° C. in fresh medium to allow apoptosis to proceed. Viability studies were carried out using 96-well plates and a 72-hour MTT assay, in quadruplicate.

M2R mouse melanoma cells = test: Phototoxicity on M2R cells (Example 10, [3H]-thymidine incorporation); type: cell-based; settings: pigments dissolved directly in culture medium containing 10% serum
Method: The diluted pigments were added and the cells were incubated in the dark for four hours at 37° C. Prior to illumination, the cells were washed once and replaced with fresh culture medium. The plates were then illuminated from the bottom for 10 minutes at room temperature and placed in the culture incubator at 37° C. in the dark. […] The following control systems were used: Dark control—untreated cells kept in the dark; Light control—cells not treated with sensitizer that were illuminated; Dark toxicity—cells treated with pigment but kept in the dark.

C6 glioma tumors = test: In vivo PDT of C6 glioma tumors and metastasis formation; set-up: species or system CD1 nude mice; settings: 5 mg/Kg i.v.; for tumor flattening (disappearance): 200 mw/cm^2 for 30 minutes
Method: (i) Materials: Pd-BPheid (prepared as in Example 1) or Pd-BPpheid-SerOMe 5 mg/kg in 20% Cremophor EL.
(ii) Light source: The light source was a Xenon fluorine LS3-PDT lamp (Bio-Spec, Russia), with 10 cm water filter and 720-850 nm light band.
(iv) Tumors: Mice were implanted with 10^6 C6 glioma cells in the foot of the hind leg. Tumors were treated when reached a length of 7-8 mm.
(vii) Protocol: Three groups (10 mice in each) were i.v. injected with 5 mg/Kg of sensitizer (Pd-BPheid or Pd-BPpheid-SerOMe) and immediately illuminated at 200 mw/cm^2, for 30 minutes, and the animals were allowed to recover in the cage. Groups 1 and 2: Animals which received PDT Pd-Bpheid and Pd-BPpheid-SerOMe, respectively. Tumor response and metastasis formation in groin were followed for 4 weeks. Group 3: Animals which were amputated at the ankle joint (paired with group 1) and metastasis formation in groin was followed for 4 weeks. The parameters of response to PDT were the percent of animals with tumor necrosis and disappearance, out of the total number of treated animals. Metatstasis was manifested by appearance of tumors in the groin or elsewhere. The endpoints considered were: follow up for 4 weeks, spontaneous death, tumors reached a diameter of 2 cm, metastasis, whichever came first.

[3] = 1 mg/Kg i.v., 300 J/cm^2, 757 nm, 75 mW/cm^2, 15 min. interval
[4] = 5 mg/Kg i.v., 300 J/cm^2, 757 nm, 75 mW/cm^2, 1 HR interval
[5] = 5 mg/Kg i.v., 300 J/cm^2, 757 nm, 75 mW/cm^2, 15 min. interval
[6] = 10 mg/Kg i.v., 100 J/cm^2, 757 nm, 75 mW/cm^2, 1 HR interval
[7] = 10 mg/Kg i.v., 100 J/cm^2, 757 nm, 75 mW/cm^2, 15 min. interval
[8] = 10 mg/Kg i.v., 300 J/cm^2, 757 nm, 75 mW/cm^2, 1 HR interval
[9] = 10 mg/Kg i.v., 300 J/cm^2, 757 nm, 75 mW/cm^2, 4 HR interval

CC[C@H]1C2=NC(=Cc3c(C(C)=O)c(C)c4[n]3[Pd][n]3c(c(C)c5c3=C(C3=NC(=C4)[C@@H](C)[C@@H]3CCC(=O)O)[C@@H](C(=O)OC)C5=O)=C2)[C@@H]1C [Pd-BPheid, Pd-bacteriopheophorbide a]
Number of Animals with Primary Tumor Regrowth (Days to Recurrence) (C3H/BA mammary carcinoma; [3]): 1(1 day)
Summary (cures), symbol (C3H/BA mammary carcinoma; [3]): −
Toxicity (Treatment associated death) (C3H/BA mammary carcinoma; [3]): 0
Number of Animals with Primary Tumor Regrowth (Days to Recurrence) (C3H/BA mammary carcinoma; [4]): 1(11 days)
Summary (cures) % (C3H/BA mammary carcinoma; [4]): 66.66%
Summary (cures), number of animals (days) (C3H/BA mammary carcinoma; [4]): 2(41 days)
Toxicity (Treatment associated death) (C3H/BA mammary carcinoma; [4]): 0
Summary (cures) % (C3H/BA mammary carcinoma; [5]): 100%
Summary (cures), number of animals (days) (C3H/BA mammary carcinoma; [5]): 2(40 days)
Toxicity (Treatment associated death) (C3H/BA mammary carcinoma; [5]): 0
Number of Animals with Primary Tumor Regrowth (Days to Recurrence) (C3H/BA mammary carcinoma; [6]): 1(5 days)
Summary (cures) % (C3H/BA mammary carcinoma; [6]): 66.66%
Summary (cures), number of animals (days) (C3H/BA mammary carcinoma; [6]): 2(40 days)
Toxicity (Treatment associated death) (C3H/BA mammary carcinoma; [6]): 0
Summary (cures) % (C3H/BA mammary carcinoma; [7]): 100%
Summary (cures), number of animals (days) (C3H/BA mammary carcinoma; [7]): 2(42 days)
Toxicity (Treatment associated death) (C3H/BA mammary carcinoma; [7]): 0
Summary (cures) % (C3H/BA mammary carcinoma; [8]): 100%
Summary (cures), number of animals (days) (C3H/BA mammary carcinoma; [8]): 2(41 days) and 1(41 days)
Toxicity (Treatment associated death) (C3H/BA mammary carcinoma; [8]): 0
Number of Animals with Primary Tumor Regrowth (Days to Recurrence) (C3H/BA mammary carcinoma; [9]): 2(1 day)
Summary (cures), symbol (C3H/BA mammary carcinoma; [9]): −
Toxicity (Treatment associated death) (C3H/BA mammary carcinoma; [9]): 0
effectiveness of PDT (C3H/BA mammary carcinoma; 4-hour interval between drug administration and light treatment): not effective
responsiveness of BA mammary carcinoma compared with RIF-1 fibrosarcoma (C3H/BA mammary carcinoma; comparable PDT treatments): more responsive
effectiveness of PDT (C3H/BA mammary carcinoma; light treatments initiated within 1 hour of drug administration): effective
LD90 concentration ([1]; 4-hour incubation, illuminated 10 minutes, 15 mW/cm^2, 9 J/cm^2): 0.1 µM
cells that lost most of their inner volume ([1]; after 4 hours post PDT): 90%
time of alteration in the cells membrane structure ([1]; post PDT): 30 min
morphological phenotype post PDT ([1]; sensitizer at LD90 concentration, phase contrast microscopy): fibrous phenotype
photodamage to the plasma membrane or to lysosomes [2]: no detectable photodamage
site of photodamage [2]: highly specific mitochondrial photosensitizers
phototoxic activity (M2R mouse melanoma cells): fully active
effect of PDT on C6 glioma tumors (C6 glioma tumors): curative
tumor flattening (disappearance) (C6 glioma tumors; day 11): 100%
tumor flattening (disappearance) (C6 glioma tumors; day 28): about 60%
frequency of metastasis after PDT (C6 glioma tumors; follow up for 4 weeks): up to 23%
